# Literature values as cited in US10028963B2, “Methods for treating intrapulmonary infections” (priority 2011, dated 2018).
# Details: patients treated for nosocomial pneumonia
smiles,measurement,value
CN(C)c1cc(NC(=O)CNC(C)(C)C)c(O)c2c1C[C@H]1C[C@H]3[C@H](N(C)C)C(=O)C(C(N)=O)=C(O)[C@@]3(O)C(=O)C1=C2O [tigicycline],Mortality risk compared to other drugs,increased mortality risk
